Data taken from patent US10213494B2, “Treatment of synucleinopathies” (The Brigham and Women's Hospital, Inc., priority 2007, dated 2019).

Experiments:
[1] = system: α-synuclein protein (wild-type, human) in MES23.5 cells; test: Sandwich ELISA of intracellular α-synuclein in MES23.5 cells co-transfected with wild-type human SNCA cDNA and lysosomal enzyme cDNA; type: cell-based; conditions: for intracellular α-synuclein level, % of control levels: n=2
Experimental: Sera from six rabbits were raised and affinity-purified at Open Biosystems, Inc. (openbiosystems.com) against recombinant, full-length human αS. Recombinant αS had been HPLC- and MS-characterized and subjected to amino acid composition and protein concentration analyses. For ELISA, 384-well MaxiSorp plates (Nunc, Inc) were coated with 50 μl/well capturing polyclonal Ab (hSA-2) diluted in coating buffer (NaHCO3 with 0.2% NaN3, pH 9.6). Following washes with PBS/0.05% Tween-20 (PBS-T), plates were blocked for 2 hours at 37° C. in blocking buffer (1.125% fish skin gelatin; PBS-T). After 4 washes, samples were loaded and incubated at 4° C. for 12 hours. Biotinylated Syn-1 mAb (as the assaying Ab) was generated using 200 μg Sulfo-NHS-LC Biotin (Pierce), diluted in blocking buffer and added to the plate for 2 hours at 37° C. Following 4 washes, ExtrAvidin phosphatase (Sigma) diluted in blocking buffer was applied for 1 hr at 37° C. Color development was carried out by using Fast-p-Nitrophenyl Phosphate (Sigma) and monitored kinetically at OD 405 nm every 5 minutes for up to 60 minutes.
To optimize a ‘DNA: LIPOFECTAMINE® 2000’ ratio with low cell toxicity, MES23.5 cells were transfected with either 0.25, 0.5 or 1 μg αS-encoding, wild-type, human SNCA cDNA plus empty vector cDNA up to a total of 5.5 μg DNA per 10 cm dish. 24 hours after transfection, cell lysates were harvested as described above. For serial dilutions of cell lysates, blocking buffer containing 0.5% lysate from vector-transfected wells was used as diluent, which was also used to create the blank and the corresponding standard curve of recombinant human αS. Saturation kinetics were examined for identification of time point(s) where standards and sample dilutions were in the log phase.
MES cells were transfected with 0.5 μg per 10 cm dish of αS-encoding SNCA cDNA-carrying plasmid, plus 5 μg per 10 cm dish of wild-type or mutant, human GBA-encoding plasmid. The GBA variants used were wild type, N370S, D409H, L444P, E235A, and E340A. These 5 GBA mutants were created by site-directed mutagenesis, using the Quickchange® kit (Stratagene), and sequence-verified. The N370S, D409H and L444P are known to occur (in the homozygous or compound heterozygous state) in Gaucher disease in the heterozygous state in Parkinson Disease patients and/or patients with dementia with Lewy bodies. The E235A and E340A mutant GBA proteins are not known to occur in people.
24 hours after transfection, MES cells were lysed as described above and all lysates were analyzed by ELISA. […] This is in contrast to the result observed in Example 5 above. The observed discrepancy can reflect the differences in total DNA transfected in the two paradigms (FIG. 2B; FIG. 2C versus FIG. 4), thereby leading to changes in the DNA:LIPOFECTAMINE® 2000 ratio, and in the role of co-expressed prosaposin (saposin C). It is therefore conceivable that wild-type GBA can have variable effects on αS levels in these MES23.5 cells, depending on the rate of αS import into lysosomes and the composition as well as activation state of more than one lysosomal enzyme.
MES23.5 cells were transfected with 0.5 μg per 10 cm dish of an αS-encoding, wild-type, human SNCA cDNA-carrying plasmid (referred to as MES-hSNCA WT cells in the Western blot shown in FIG. 6), plus either 1.25, 2.5 or 5 μg per 10 cm dish of a human Cathepsin D-encoding CTSD cDNA plasmid, which was purchased from OriGene Technologies, Inc., and was under the control of a CMV promoter. The Cathepsin D clone was fully sequence-verified after isolation and maxiprep. Each transfection arm was balanced with empty vector DNA up to a total of 5.5 μg DNA per 10 cm dish. 24 hours after transfection, cells were lysed, and the resulting lysates were analyzed by the sandwich ELISA described herein. […]

MES-syn cells [2] = test: MTT assay of cellular metabolism; type: cell-based, rodent; conditions: CTSD cDNA 5 μg/10 cm dish; control vector 100+/−4.05%; n=6
Experimental: (§1) To confirm that the effect of Cathepsin D on lowering of αS in MES23.5 cells was specific and was not caused by a general decrease in cellular metabolism and integrity, the MTT and LDH assays were performed on MES-syn cells that had been co-transfected with the highest amount of Cathepsin D-encoding cDNA (5 μg/10 cm dish). Lysis of cells with 0.1% Triton-X® 100 served as a positive control, representing maximal cell death.

MES-syn cells [3] = test: LDH release assay of cellular integrity; type: cell-based, rodent; conditions: enzyme cDNA 5 μg/10 cm dish, versus control vector transfected cells
Experimental: as §1
To confirm that the effect of Cathepsin F on lowering of αS was specific and was not caused by a general decrease in cellular integrity, the LDH assay was performed on MES-syn cells that had been co-transfected with Cathepsin F-encoding CTSF cDNA (5 μg/10 cm dish). Lysis of cells with 0.1% Triton-X 100 served as a positive control for cell toxicity, promoting maximal cell death.

cathepsin D: human lysosomal aspartyl protease expressed from CTSD cDNA plasmid under a CMV promoter
intracellular α-synuclein level, % of control levels ([1]; cathepsin D cDNA 1.25 μg/10 cm dish, 24 hours): 68+/−17.7%
intracellular α-synuclein level, % of control levels ([1]; cathepsin D cDNA 2.5 μg/10 cm dish, 24 hours): 53+/−16.8%
intracellular total α-synuclein level, % of control levels ([1]; cathepsin D cDNA 5 μg/10 cm dish, 24 hours, n=11): 25.3+/−7.0%
αS-lowering effect, percent of total intracellular αS concentration detectable ([1]; cathepsin D co-expression): ≤ 75%
MTT signal (MES-syn cells [2]): 101.3+/−3.91%
LDH signal (MES-syn cells [3]): identical to that of control vector transfected cells
